Measured values from patent US12486302B2, “Somatostatin receptor antagonist compounds and methods of using the same” (CDRD VENTURES INC., priority 2016, dated 2025).
Where a SMILES comes first, the peptide text is derived from it. Bridges are numbered along the chain shown (N, C = ends). [ ]: non-standard residue; d: D form. dPhe(4-CONH2) = NC(=O)c1ccc(C[C@@H](N)C(=O)O)cc1; Phe(4-Cl) = N[C@@H](Cc1ccc(Cl)cc1)C(=O)O; Lys(Me) = CNCCCC[C@H](N)C(=O)O

What was measured:
SSTR1 = SSTR1 (Homo sapiens, UniProt P30872); assay: PathHunter β-Arrestin assay, antagonist mode, SSTR1; type: cell-based; settings: agonist challenge at EC80
Chain of SSTR1 (P30872 whole entry, the tested form may be a part): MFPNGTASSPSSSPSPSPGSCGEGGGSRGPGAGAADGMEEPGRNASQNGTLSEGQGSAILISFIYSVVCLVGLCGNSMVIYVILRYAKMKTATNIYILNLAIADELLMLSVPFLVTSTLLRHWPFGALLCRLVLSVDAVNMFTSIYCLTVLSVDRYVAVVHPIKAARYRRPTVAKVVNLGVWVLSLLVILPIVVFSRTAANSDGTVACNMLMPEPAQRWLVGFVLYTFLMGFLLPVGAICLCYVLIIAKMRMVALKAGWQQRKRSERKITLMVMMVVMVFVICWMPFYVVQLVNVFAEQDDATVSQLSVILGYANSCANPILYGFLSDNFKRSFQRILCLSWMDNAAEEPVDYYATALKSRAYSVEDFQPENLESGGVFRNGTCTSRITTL
Procedure: (§1) The PathHunter® β-Arrestin assay monitors the activation of a GPCR in a homogenous, non-imaging assay format using a technology developed by DiscoveRx called Enzyme Fragment Complementation (EFC) with β-galactosidase (β-Gal) as the functional reporter. […] EA is fused to β-Arrestin and […] is fused to the GPCR of interest. When the GPCR is activated and β-Arrestin is recruited to the receptor, ED and EA complementation occurs, restoring β-Gal activity which is measured using chemiluminescent PathHunter® Detection Reagents. For antagonist determination, cells were pre-incubated with the compounds followed by agonist challenge at the EC80 concentration. Data was normalized to the maximal and minimal response observed in the presence of EC80 ligand and vehicle. Compound activity was analyzed using CBIS data analysis suite ChemInnovation, CA). Percentage inhibition was calculated using the following formula: % Inhibition=100%×(1−(mean signal of test sample-mean signal of vehicle control)/(mean signal of EC80 control-mean signal of vehicle control)). Percentage inhibition was calculated at 10 concentrations in steps on a Log 3 scale ranging from […] to 5e-5 μM. The results were plotted for IC50 calculation.

SSTR4 = SSTR4 (Homo sapiens, UniProt P31391); assay: PathHunter β-Arrestin assay, antagonist mode, SSTR4; type: cell-based; settings: agonist challenge at EC80
Chain of SSTR4 (P31391 whole entry): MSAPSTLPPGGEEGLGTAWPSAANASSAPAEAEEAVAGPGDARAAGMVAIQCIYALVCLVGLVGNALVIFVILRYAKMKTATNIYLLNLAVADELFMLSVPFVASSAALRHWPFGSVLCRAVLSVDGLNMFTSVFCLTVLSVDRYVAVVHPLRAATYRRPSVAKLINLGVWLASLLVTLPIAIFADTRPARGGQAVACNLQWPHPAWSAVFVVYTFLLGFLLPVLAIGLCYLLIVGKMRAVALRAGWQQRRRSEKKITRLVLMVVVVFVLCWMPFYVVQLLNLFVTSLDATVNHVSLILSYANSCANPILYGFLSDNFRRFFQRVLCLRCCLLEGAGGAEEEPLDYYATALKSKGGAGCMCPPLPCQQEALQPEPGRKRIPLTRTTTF
Procedure: as §1

[1] = system: STZ diabetic Sprague Dawley rats; assay: Hypoglycemic Challenge #1 (10 U/kg insulin) in STZ diabetic rats; type: in vivo, rat; settings: for period after insulin with significantly higher BG values compared with Vehicle Control: 2-Way ANOVA, insulin 10 U/kg; for peak glucagon value: saphenous blood, 0 to 100 minutes after insulin dosing
Procedure: (§2) Male Sprague Dawley rats (initial weight 150-175 g) were purchased from Charles River Laboratories (Montreal, QC, Canada). Rats were housed in the York University Vivarium in a 12-hour light dark cycle. All animals were fed a standard rodent chow diet (14% fat, 54% carbohydrates, […] & 3.0 calories/g of food) and water ad libitum. After a minimum of one week of acclimation, all animals received an intraperitoneal injection of streptozotocin (STZ) (Sigma) at a dose of 65 mg/kg body weight. After STZ injection, animals were provided with sugar water (5% solution) overnight. Any animals whose blood glucose was not greater than 10 mM within 2 days of STZ injection received a second injection.
One week after induction of diabetes, insulin treatment was initiated to maintain blood glucose values within a reasonable glucose controlled range in the fasted state (8-20 mM). Insulin pellets (LinChin, Toronto, ON, Canada) were implanted subcutaneously in any rat with blood glucose over 20 mM. Briefly, animals were anesthetized via inhaled isoflurane and pellets were implanted subcutaneously within the scapular region. One week later animals underwent their first hypoglycemic challenge (Hypoglycemic Challenge #1), followed by a second hypoglycemic challenge (Hypoglycemic Challenge #2) the following week (see below). Throughout the study, daily animals checks were conducted to assess body weight, blood glucose as well as food/calorie consumption.
Animals were divided into groups and received Compound 4, or Compound 24 or a corresponding dose of vehicle. Compounds were given 1 hour prior to commencement of the hypoglycemic challenge. On the morning of the hypoglycemic challenge, food was removed from the cage and a plasma sample was collected as baseline (prior to compound/vehicle administration), one-hour post drug/vehicle administration and at set points throughout the challenges.
For Hypoglycemic Challenge #1, hypoglycemia was induced via subcutaneous administration of a bolus of insulin (10U Novo Rapid insulin/kg body weight). Blood glucose was assessed every 10 minutes via saphenous vein puncture. Additionally, plasma was collected from the saphenous vein every 20 minutes, until 100-minutes post insulin administration. An additional plasma sample was collected 4-hours post drug administration (3 hours post insulin bolus) for mass spectrometry analysis of the compounds in plasma.

[2] = system: STZ diabetic Sprague Dawley rats; assay: Hypoglycemic Challenge #2 (20 U/kg insulin) in STZ diabetic rats; type: in vivo, rat; settings: 20 U/kg insulin challenge; target BG 2.5 mM; N=9
Procedure: as §2
One week after induction of diabetes, insulin treatment was initiated to maintain blood glucose values within a reasonable glucose controlled range in the fasted state (8-20 mM). Insulin pellets (LinChin, Toronto, ON, Canada) were implanted subcutaneously in any rat with blood glucose over 20 mM. […]
One week after the first hypoglycemia challenge, a second similar hypoglycemic challenge (Hypoglycemia Challenge #2) was conducted; however this time a higher dose of insulin was given to insure that severe hypoglycemia developed (20U Novo Rapid/kg body weight). Blood glucose was monitored, every 5-10 min, via saphenous vein puncture. […]

SSTR3 = SSTR3 (Homo sapiens, UniProt P32745); assay: PathHunter β-Arrestin assay, antagonist mode, SSTR3; type: cell-based; settings: agonist challenge at EC80
Chain of SSTR3 (P32745 whole entry): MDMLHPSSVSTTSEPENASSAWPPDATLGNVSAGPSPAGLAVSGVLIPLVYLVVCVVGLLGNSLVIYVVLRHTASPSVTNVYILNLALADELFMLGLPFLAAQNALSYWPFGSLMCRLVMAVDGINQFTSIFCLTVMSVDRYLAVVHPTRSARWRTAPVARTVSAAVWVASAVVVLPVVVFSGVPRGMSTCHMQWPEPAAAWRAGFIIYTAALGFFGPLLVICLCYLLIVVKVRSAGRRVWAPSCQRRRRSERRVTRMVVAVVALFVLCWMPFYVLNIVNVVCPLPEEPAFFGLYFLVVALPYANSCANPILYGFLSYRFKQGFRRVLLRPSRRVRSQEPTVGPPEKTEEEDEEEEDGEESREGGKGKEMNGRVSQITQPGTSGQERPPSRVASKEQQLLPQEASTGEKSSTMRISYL
Procedure: as §1

SSTR5 = SSTR5 (Homo sapiens, UniProt P35346); assay: PathHunter β-Arrestin assay, antagonist mode, SSTR5; type: cell-based; settings: agonist challenge at EC80
Chain of SSTR5 (P35346 whole entry): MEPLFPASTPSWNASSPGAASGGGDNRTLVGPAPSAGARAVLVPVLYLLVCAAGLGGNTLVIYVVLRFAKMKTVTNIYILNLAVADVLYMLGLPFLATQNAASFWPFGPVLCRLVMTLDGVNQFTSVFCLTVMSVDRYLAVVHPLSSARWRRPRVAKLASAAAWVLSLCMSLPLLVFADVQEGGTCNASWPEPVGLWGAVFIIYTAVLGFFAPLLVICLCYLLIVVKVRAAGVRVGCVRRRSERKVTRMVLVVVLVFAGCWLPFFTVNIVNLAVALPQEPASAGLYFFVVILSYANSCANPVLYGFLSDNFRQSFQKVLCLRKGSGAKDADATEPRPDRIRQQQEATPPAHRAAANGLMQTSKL
Procedure: as §1

[3] = target: somatostatin type 2 (SSTR2) receptors (Homo sapiens, UniProt P30874); assay: PathHunter β-Arrestin assay, antagonist mode, SSTR2; type: cell-based; settings: agonist challenge at EC80
Chain of somatostatin type 2 (SSTR2) receptors (P30874 whole entry): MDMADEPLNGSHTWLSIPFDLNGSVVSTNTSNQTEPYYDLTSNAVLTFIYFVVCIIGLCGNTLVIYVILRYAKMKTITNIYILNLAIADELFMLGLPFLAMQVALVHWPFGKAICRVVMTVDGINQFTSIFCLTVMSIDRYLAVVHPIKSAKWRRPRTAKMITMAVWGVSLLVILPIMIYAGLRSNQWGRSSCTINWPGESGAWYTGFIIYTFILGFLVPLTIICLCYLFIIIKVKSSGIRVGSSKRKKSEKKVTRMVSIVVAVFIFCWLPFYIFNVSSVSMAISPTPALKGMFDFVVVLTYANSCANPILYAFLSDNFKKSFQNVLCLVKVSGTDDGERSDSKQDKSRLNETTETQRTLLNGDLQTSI
How it was run: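 Cells co-expressing PK-tagged human receptor and EA-β-Arrestin were pre-incubated with compound, then challenged with agonist at EC80. β-Gal complementation read by chemiluminescence; % inhibition normalized to EC80 and vehicle controls at 10 concentrations (log 3 steps from 1 μM down to 5e-5 μM), fitted for IC50.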

C[C@@H](O)[C@@H]1NC(=O)[C@H](CCCCN)NC(=O)[C@@H](Cc2ccc(C(N)=O)cc2)NC(=O)[C@H](Cc2ccc(O)cc2)NC(=O)[C@H](NC(=O)[C@@H](N)Cc2ccc(Cl)cc2)CSSC[C@@H](C(=O)N[C@H](Cc2ccc(O)cc2)C(N)=O)NC1=O [Compound 4, H-Cpa-cyclo[D-Cys-Tyr-D-Phe(4-carbamoyl)-Lys-Thr-Cys]-D-Tyr-NH2]
IC50 (SSTR1): > 1000 nM
IC50 (SSTR4): > 1000 nM
period after insulin with significantly higher BG values compared with Vehicle Control ([1]; N=9): 20 min
incidence of severe hypoglycemia (BG threshold 1.9 mM) ([1]; after 130 minutes): 33%
peak glucagon value ([1]; N=9): 180 pg/mL
average portal blood glucagon concentration at hypoglycemia [2]: 462 pg/mL
IC50 (SSTR3): > 1000 nM
IC50 (SSTR5): > 1000 nM
IC50 [3]: 17 nM

CNCCCC[C@@H]1NC(=O)[C@@H](Cc2ccc(C(N)=O)cc2)NC(=O)[C@H](Cc2ccc(O)cc2)NC(=O)[C@H](NC(=O)[C@@H](N)Cc2ccc(Cl)cc2)CSSC[C@@H](C(=O)N[C@H](Cc2ccc(O)cc2)C(N)=O)NC(=O)[C@H]([C@@H](C)O)NC1=O [Compound 24, H-Cpa-cyclo[D-Cys-Tyr-D-Phe(4-carbamoyl)-Lys(N^ε-Me)-Thr-Cys]-D-Tyr-NH2] (H-[Phe(4-Cl)][dC]Y[dPhe(4-CONH2)][Lys(Me)]TC[dY]-NH2; disulfide 2-7)
IC50 (SSTR1): > 1000 nM
IC50 (SSTR4): > 1000 nM
period after insulin with significantly higher BG values compared with Vehicle Control ([1]; N=9): 40 min
time at which rats first became hypoglycemic (BG threshold 3.9 mM) ([1]; 2 of 9 rats, after insulin 10 U/kg): 40 min
average time to onset of hypoglycemia (BG first reached 3.9 mM) ([1]; after 10 U/kg insulin dose, interpolated from BG curves, N=9): 97 min
incidence of severe hypoglycemia (BG threshold 1.9 mM) ([1]; after 150 minutes): 44%
AUC of blood glucose below the 3.9 mM threshold (extent of hypoglycemia) ([1]; compound at t=-60 min, insulin 10 U/kg at t=0, N=9): 55 mM·min
number of rats that never became hypoglycemic ([1]; of 9 rats, BG threshold 3.9 mM): 1
peak glucagon value ([1]; N=9): 175 pg/mL
average portal blood glucagon concentration at hypoglycemia [2]: 801 pg/mL
IC50 (SSTR3): > 1000 nM
IC50 (SSTR5): > 1000 nM
IC50 [3]: 0.96 nM
